This note sets out measurements from ChEMBL document CHEMBL1221248, “Synthesis and SAR of (piperazin-1-yl-phenyl)-arylsulfonamides: a novel series of atypical antipsychotic agents” (Bioorg Med Chem Lett, 2010).

Active and inactive are the calls of the source. The rule behind the calls is not given here.

The species entered for experiment [1] is Homo sapiens. The experiment in a line: Selectivity ratio of IC50 for human 5HT7 to IC50 for human 5HT2C.
For experiment [2], the species on record is Homo sapiens. Kind of experiment: Selectivity ratio of IC50 for human dopamine D3 to IC50 for human 5HT2C.
The species entered for experiment [3] is Homo sapiens. Kind of experiment: Selectivity ratio of IC50 for human dopamine D2 to IC50 for human 5HT2C.
Experiment [4] deals with T1, 5-hydroxytryptamine receptor 2C (Homo sapiens, UniProt P28335).
T1 sequence (P28335 whole entry): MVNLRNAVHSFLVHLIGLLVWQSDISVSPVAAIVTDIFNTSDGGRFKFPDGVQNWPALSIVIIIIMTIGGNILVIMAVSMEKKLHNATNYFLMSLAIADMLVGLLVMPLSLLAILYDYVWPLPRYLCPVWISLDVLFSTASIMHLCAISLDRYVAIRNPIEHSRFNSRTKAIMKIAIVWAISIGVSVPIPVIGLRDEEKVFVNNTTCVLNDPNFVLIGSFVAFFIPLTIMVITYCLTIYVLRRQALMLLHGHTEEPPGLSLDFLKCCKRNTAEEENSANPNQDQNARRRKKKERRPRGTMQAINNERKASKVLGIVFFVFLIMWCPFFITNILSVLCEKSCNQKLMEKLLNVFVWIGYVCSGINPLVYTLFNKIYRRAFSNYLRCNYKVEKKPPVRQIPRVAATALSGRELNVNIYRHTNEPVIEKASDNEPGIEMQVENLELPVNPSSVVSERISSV
The experiment in a line: Displacement of [3H]mesulergine from human 5HT2C expressed in CHOKI cells. It counts as cell-based.

For experiment [5], the species on record is Homo sapiens. Kind of experiment: Selectivity ratio of IC50 for human 5HT2A to IC50 for human 5HT6 receptor.
The target of a further experiment is D(2) dopamine receptor (Homo sapiens, UniProt P14416). Kind of experiment: Displacement of [3H]spiperone from human dopamine D2 expressed in CHOKI cells. In kind it is cell-based.
Experiment [6] has as its target 5-hydroxytryptamine receptor 2A (Homo sapiens, UniProt P28223). The experiment in a line: Displacement of [3H]ketanserin from human 5HT2A expressed in CHOKI cells. In kind it is cell-based.
Experiment [7] is filed under the species Homo sapiens. The experiment in a line: Selectivity ratio of IC50 for human 5HT1A to IC50 for human 5HT6 receptor.
The species entered for experiment [8] is Homo sapiens. Kind of experiment: Selectivity ratio of IC50 for human dopamine D2 to IC50 for human 5HT6 receptor.
The target in experiment [9] is T2, 5-hydroxytryptamine receptor 6 (Homo sapiens, UniProt P50406). Kind of experiment: Antagonist activity at human 5HT6 expressed in human HeLa cells assessed as inhibition of 5-HT-stimulated cAMP accumulation.
Target sequence in this assay (P50406 whole entry, looked up): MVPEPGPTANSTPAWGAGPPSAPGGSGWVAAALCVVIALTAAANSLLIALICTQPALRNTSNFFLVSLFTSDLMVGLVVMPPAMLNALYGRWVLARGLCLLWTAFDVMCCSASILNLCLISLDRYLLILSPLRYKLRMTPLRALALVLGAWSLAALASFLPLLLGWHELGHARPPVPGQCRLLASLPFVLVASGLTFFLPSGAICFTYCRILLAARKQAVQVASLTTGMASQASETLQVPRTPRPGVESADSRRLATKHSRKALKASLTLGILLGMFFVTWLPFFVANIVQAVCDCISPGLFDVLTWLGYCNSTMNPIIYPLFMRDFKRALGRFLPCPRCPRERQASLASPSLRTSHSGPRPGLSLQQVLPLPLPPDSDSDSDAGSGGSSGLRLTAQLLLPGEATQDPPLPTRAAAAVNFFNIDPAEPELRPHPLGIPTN
Experiment [10] has as its target T2, 5-hydroxytryptamine receptor 6. The experiment in a line: Antagonist activity at human 5HT6 receptor expressed in human HeLa cells assessed as inhibition of 5-HT-stimulated cAMP production. It counts as functional, cell-based.
Target sequence in this assay (P50406 whole entry): as the sequence (P50406 whole entry, looked up) above
For experiment [11], the species on record is Homo sapiens. The experiment in a line: Selectivity ratio of IC50 for human dopamine D4 to IC50 for human 5HT2C.
In experiment [12] the target is T3, 5-hydroxytryptamine receptor 2C (Homo sapiens) (UniProt P28335).
T3 sequence (whole entry): T1 sequence (P28335 whole entry)
The experiment in a line: Antagonist activity at human 5HT2C expressed in CHO cells assessed as inhibition of 5-HT-stimulated [35S]GTPgamma binding. It counts as functional, cell-based.

Experiment [13] concerns the target Serotonin 2 receptors; 5-HT2a & 5-HT2c (Homo sapiens) (UniProt P28223+P28335). Kind of experiment: Selectivity ratio of IC50 for human 5HT2A to IC50 for human 5HT2C.
The next experiment has as its target T4, D(4) dopamine receptor (Homo sapiens, UniProt P21917).
T4 sequence (P21917 whole entry): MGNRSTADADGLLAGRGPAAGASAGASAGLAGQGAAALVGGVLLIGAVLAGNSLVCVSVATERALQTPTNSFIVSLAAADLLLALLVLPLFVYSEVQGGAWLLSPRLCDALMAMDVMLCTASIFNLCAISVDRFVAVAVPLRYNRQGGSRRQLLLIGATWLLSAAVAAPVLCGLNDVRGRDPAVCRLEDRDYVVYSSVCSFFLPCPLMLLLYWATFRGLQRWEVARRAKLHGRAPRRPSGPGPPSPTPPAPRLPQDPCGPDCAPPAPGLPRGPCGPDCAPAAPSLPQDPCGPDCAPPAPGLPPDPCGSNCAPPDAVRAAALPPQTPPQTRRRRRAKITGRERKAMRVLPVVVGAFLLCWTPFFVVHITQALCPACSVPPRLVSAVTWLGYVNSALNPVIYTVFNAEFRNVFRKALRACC
Kind of experiment: Displacement of [3H]spiperone from human dopamine D4 receptor expressed in CHOKI cells. It counts as cell-based.

The species entered for experiment [14] is Homo sapiens. Kind of experiment: Selectivity ratio of IC50 for human 5HT7 to IC50 for human 5HT6 receptor.
In a further experiment the target is D(3) dopamine receptor (Homo sapiens, UniProt P35462). Kind of experiment: Displacement of [3H]spiperone from human dopamine D3 receptor expressed in CHOKI cells. In kind it is cell-based.
The species entered for experiment [15] is Homo sapiens. Kind of experiment: Selectivity ratio of IC50 for human 5HT1A to IC50 for human 5HT2C.
Experiment [16] deals with T5, 5-hydroxytryptamine receptor 1A (Homo sapiens, UniProt P08908).
T5 sequence (P08908 whole entry): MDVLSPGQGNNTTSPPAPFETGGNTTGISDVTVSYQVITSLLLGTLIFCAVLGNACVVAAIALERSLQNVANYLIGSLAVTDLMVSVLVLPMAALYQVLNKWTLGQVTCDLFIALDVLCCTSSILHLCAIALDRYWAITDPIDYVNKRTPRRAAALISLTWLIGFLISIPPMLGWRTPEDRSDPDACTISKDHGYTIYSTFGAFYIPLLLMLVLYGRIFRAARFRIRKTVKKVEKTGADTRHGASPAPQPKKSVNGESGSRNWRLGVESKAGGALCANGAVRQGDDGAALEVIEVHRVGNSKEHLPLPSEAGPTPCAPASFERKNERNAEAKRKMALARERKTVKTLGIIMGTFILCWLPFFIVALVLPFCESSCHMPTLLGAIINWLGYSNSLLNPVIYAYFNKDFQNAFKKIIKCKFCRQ
The experiment in a line: Displacement of [3H]8-OH-DPAT from human 5HT1A expressed in CHOKI cells. In kind it is cell-based.

The species entered for experiment [17] is Homo sapiens. The experiment in a line: Selectivity ratio of IC50 for human dopamine D4 to IC50 for human 5HT6 receptor.
The species named for experiment [18] is Homo sapiens. The experiment in a line: Selectivity ratio of IC50 for human dopamine D3 to IC50 for human 5HT6 receptor.
The target in experiment [19] is T2, 5-hydroxytryptamine receptor 6. Kind of experiment: Displacement of [3H]LSD from human 5HT6 receptor expressed in HEK293 cells. It counts as cell-based.
Target sequence in this assay (P50406 whole entry): as the sequence (P50406 whole entry, looked up) above

D(3) dopamine receptor, sequence (P35462 whole entry): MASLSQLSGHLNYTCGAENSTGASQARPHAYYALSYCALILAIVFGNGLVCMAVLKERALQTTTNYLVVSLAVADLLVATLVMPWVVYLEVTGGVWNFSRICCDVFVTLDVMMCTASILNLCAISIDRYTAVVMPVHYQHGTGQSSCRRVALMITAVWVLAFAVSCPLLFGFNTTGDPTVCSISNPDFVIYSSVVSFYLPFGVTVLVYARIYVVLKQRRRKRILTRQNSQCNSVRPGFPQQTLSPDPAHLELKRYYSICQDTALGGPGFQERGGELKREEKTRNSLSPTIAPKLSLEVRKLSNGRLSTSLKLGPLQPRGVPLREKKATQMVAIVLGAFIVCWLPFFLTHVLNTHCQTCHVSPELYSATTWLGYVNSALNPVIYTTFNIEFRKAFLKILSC
Serotonin 2 receptors; 5-HT2a & 5-HT2c (Homo sapiens), sequence (P28223 whole entry, looked up, one chain of several): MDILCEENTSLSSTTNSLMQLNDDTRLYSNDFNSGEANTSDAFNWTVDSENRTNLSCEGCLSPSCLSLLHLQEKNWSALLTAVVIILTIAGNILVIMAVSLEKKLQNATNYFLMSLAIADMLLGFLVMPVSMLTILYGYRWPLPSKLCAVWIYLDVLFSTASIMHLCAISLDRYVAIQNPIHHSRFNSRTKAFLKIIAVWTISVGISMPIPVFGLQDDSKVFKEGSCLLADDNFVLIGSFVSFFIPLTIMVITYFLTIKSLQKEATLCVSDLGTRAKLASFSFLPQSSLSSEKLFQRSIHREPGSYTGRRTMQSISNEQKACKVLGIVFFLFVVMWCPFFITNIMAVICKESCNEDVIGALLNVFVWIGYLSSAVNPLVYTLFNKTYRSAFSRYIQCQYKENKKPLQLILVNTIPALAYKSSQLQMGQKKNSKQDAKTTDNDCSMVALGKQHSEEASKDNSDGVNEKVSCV
5-hydroxytryptamine receptor 2A, sequence (P28223 whole entry): as the sequence (P28223 whole entry, looked up, one chain of several) above
D(2) dopamine receptor, sequence (P14416 whole entry): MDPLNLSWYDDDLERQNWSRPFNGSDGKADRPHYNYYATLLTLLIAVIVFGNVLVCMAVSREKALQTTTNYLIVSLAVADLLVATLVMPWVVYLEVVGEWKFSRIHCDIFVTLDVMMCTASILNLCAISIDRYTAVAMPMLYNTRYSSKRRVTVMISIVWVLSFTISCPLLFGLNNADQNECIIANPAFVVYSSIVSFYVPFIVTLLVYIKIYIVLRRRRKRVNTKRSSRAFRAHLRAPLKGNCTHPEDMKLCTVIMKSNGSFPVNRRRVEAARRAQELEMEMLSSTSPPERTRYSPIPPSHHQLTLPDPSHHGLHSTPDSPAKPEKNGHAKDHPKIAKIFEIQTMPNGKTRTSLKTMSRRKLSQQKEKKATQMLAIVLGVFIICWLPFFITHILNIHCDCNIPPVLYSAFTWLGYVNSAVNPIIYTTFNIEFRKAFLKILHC

In the case of `CC(C)N(c1cccc(N2CCN(C)CC2)c1)S(=O)(=O)c1ccc2ccccc2c1`, the Ratio IC50 in the experiment listed under Homo sapiens [1], in the experiment filed under Homo sapiens [2], in the experiment filed under Homo sapiens [3], in the experiment filed under Homo sapiens [5], in the experiment filed under Homo sapiens [7] and in the experiment listed under Homo sapiens [8] was over 25 throughout. In addition, the Ratio IC50 (in the experiment filed under Homo sapiens [11]; in experiment [13]; in the experiment listed under Homo sapiens [14]; in the experiment filed under Homo sapiens [15]; in the experiment filed under Homo sapiens [17]; in the experiment listed under Homo sapiens [18]) was over 25 each time. The IC50 in [4] is 0.004 µM; at D(2) dopamine receptor, over 10 µM; in experiment [6], 0.118 µM; at D(4) dopamine receptor it was over 1 µM; at D(3) dopamine receptor, 0.248 µM; in experiment [16], over 1 µM. For the same compound, the IC50 in [19] was determined as 0.003 µM. Further, the inhibition entry in [9] and in [10] was “Active” in each case. Besides, in [12], the inhibition entry is “Dose-dependent effect”.
